Experimental data published in US7470669B2, “Isolated polypeptide comprising a leptin fragment” (Serono Genetics Institute, S.A., priority 1999, dated 2008).

Legend:
ob/ob mice = test: Food intake of ob/ob mice under daily subcutaneous injections; type: in vivo, mouse; details: daily subcutaneous injections of 25 μg over a 12 day period
Protocol: A synthetic peptide with a sequence identical to that of mouse leptin between residues 117-138 was obtained and found to stimulate the oleate-induced binding of ^125I-LDL in primary cultures of rat hepatocytes (FIG. 11B, insert). Daily subcutaneous injections of 25 μg of this synthetic leptin peptide to ob/ob mice had no effect on the food intake over a 12 day period (7.6±0.4 g/day in ob/ob receiving saline and 6.7±0.3 g/day in ob/ob receiving peptide; n=4, NS). Daily injections of 25 μg of mouse leptin caused a reduction of food intake to 4.7±0.5 g/day (n=3; p<0.003 versus controls).

db/db mice = test: Postprandial plasma TG response after high-fat test meal in db/db mice; type: in vivo, mouse
Protocol: FIGS. 1A and 1B show the effect of leptin on postprandial plasma TG response in db/db and db^Pas/db^Pas mice. Overnight-fasted db/db (A), db^Pas/db^Pas (B) mice were gavage-fed a high-fat test meal and immediately injected intravenously (db/db) or intraperitoneally (db^Pas/db^Pas) with saline (open symbols) or 50 μg mouse recombinant leptin (closed symbols). At the indicated times, blood was collected from the tail (A) or orbital (B) vein, plasma was separated by centrifugation, and plasma TG concentrations were determined using an enzymatic kit. Each point represents the mean±SEM (db/db: saline, n=4, leptin, n=3; db^Pas/db^Pas: saline, n=6, leptin, n=7). The average plasma lipid response in 10 control C57BL6 mice is shown as a dotted line in both A and B. In a separate experiment, shown as an inset for each strain of mice, overnight fasted db/db (●) or db^Pas/db^Pas (▪) mice were gavage-fed the test meal and immediately injected intravenously with increasing concentrations of leptin. The plasma lipid response was then measured as in A and B. The area under the response curve (AUC) was then calculated using a triangulation method on Microsoft Excel between 0 and 4 hr (mg TG·h/mL). Values are presented as % of control value (test meal alone obtained in A or B). Each point represents the mean of at least 3 mice.
Mice that were fasted for 2-3 hours were gavage-fed 300 μL of a test meal consisting of 60% fat (37% saturated, 27% mono-, and 36% polyunsaturated fatty acids), 20% protein and 20% carbohydrate, and providing 56 kcal of energy/kg (1.5 g butter, 1.5 g sunflower oil, 2.5 g nonfat dry milk, 2.5 g sucrose and 3 ml water). Immediately after the meal, the animals were injected intravenously (db/db) or intraperitoneally (db^Pas/db^Pas) with either 200 μL physiological saline or 200 μL of the same solution containing recombinant mouse leptin. […] TG concentrations were determined using a commercially available enzymatic kit with controls included in each assay (Precinorm L, Roche-Boehringer Mannheim; Lyotrol N, BioMérieux). […]

LRP = LRP (Homo sapiens, UniProt Q07954); test: Degradation of activated α2-macroglobulin (LRP ligand); type: cell-based; details: leptin up to 2 μg/mL
Ob-R = target: T1, Ob-R (Mus musculus, UniProt P48356); details: Tartaglia et al, 1995; cited from earlier work
T1 sequence (P48356 22-894 isoform P48356-2 limits assumed): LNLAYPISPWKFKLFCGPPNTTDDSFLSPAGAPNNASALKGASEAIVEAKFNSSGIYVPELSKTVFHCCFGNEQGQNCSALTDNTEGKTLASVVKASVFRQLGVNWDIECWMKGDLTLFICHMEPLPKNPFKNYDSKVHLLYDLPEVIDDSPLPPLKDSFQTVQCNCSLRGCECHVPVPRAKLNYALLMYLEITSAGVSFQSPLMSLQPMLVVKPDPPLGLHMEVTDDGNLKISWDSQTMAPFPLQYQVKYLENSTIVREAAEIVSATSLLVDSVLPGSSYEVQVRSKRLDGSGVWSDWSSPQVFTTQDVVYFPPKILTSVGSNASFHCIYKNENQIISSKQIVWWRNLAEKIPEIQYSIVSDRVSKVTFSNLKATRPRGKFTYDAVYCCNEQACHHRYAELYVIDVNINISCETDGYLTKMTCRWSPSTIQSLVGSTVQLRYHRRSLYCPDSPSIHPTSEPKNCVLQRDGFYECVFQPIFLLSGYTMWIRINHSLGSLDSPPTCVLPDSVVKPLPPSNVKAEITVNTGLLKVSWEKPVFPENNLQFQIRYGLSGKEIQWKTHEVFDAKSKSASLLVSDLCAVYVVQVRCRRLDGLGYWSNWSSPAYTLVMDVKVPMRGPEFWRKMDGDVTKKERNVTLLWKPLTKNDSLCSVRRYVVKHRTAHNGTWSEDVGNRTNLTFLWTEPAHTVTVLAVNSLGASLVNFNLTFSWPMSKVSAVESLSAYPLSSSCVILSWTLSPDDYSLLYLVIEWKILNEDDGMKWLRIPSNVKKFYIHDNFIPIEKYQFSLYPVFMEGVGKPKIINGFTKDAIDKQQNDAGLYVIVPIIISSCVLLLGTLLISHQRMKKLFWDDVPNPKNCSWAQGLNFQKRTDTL

LRP, sequence (Q07954 20-4544): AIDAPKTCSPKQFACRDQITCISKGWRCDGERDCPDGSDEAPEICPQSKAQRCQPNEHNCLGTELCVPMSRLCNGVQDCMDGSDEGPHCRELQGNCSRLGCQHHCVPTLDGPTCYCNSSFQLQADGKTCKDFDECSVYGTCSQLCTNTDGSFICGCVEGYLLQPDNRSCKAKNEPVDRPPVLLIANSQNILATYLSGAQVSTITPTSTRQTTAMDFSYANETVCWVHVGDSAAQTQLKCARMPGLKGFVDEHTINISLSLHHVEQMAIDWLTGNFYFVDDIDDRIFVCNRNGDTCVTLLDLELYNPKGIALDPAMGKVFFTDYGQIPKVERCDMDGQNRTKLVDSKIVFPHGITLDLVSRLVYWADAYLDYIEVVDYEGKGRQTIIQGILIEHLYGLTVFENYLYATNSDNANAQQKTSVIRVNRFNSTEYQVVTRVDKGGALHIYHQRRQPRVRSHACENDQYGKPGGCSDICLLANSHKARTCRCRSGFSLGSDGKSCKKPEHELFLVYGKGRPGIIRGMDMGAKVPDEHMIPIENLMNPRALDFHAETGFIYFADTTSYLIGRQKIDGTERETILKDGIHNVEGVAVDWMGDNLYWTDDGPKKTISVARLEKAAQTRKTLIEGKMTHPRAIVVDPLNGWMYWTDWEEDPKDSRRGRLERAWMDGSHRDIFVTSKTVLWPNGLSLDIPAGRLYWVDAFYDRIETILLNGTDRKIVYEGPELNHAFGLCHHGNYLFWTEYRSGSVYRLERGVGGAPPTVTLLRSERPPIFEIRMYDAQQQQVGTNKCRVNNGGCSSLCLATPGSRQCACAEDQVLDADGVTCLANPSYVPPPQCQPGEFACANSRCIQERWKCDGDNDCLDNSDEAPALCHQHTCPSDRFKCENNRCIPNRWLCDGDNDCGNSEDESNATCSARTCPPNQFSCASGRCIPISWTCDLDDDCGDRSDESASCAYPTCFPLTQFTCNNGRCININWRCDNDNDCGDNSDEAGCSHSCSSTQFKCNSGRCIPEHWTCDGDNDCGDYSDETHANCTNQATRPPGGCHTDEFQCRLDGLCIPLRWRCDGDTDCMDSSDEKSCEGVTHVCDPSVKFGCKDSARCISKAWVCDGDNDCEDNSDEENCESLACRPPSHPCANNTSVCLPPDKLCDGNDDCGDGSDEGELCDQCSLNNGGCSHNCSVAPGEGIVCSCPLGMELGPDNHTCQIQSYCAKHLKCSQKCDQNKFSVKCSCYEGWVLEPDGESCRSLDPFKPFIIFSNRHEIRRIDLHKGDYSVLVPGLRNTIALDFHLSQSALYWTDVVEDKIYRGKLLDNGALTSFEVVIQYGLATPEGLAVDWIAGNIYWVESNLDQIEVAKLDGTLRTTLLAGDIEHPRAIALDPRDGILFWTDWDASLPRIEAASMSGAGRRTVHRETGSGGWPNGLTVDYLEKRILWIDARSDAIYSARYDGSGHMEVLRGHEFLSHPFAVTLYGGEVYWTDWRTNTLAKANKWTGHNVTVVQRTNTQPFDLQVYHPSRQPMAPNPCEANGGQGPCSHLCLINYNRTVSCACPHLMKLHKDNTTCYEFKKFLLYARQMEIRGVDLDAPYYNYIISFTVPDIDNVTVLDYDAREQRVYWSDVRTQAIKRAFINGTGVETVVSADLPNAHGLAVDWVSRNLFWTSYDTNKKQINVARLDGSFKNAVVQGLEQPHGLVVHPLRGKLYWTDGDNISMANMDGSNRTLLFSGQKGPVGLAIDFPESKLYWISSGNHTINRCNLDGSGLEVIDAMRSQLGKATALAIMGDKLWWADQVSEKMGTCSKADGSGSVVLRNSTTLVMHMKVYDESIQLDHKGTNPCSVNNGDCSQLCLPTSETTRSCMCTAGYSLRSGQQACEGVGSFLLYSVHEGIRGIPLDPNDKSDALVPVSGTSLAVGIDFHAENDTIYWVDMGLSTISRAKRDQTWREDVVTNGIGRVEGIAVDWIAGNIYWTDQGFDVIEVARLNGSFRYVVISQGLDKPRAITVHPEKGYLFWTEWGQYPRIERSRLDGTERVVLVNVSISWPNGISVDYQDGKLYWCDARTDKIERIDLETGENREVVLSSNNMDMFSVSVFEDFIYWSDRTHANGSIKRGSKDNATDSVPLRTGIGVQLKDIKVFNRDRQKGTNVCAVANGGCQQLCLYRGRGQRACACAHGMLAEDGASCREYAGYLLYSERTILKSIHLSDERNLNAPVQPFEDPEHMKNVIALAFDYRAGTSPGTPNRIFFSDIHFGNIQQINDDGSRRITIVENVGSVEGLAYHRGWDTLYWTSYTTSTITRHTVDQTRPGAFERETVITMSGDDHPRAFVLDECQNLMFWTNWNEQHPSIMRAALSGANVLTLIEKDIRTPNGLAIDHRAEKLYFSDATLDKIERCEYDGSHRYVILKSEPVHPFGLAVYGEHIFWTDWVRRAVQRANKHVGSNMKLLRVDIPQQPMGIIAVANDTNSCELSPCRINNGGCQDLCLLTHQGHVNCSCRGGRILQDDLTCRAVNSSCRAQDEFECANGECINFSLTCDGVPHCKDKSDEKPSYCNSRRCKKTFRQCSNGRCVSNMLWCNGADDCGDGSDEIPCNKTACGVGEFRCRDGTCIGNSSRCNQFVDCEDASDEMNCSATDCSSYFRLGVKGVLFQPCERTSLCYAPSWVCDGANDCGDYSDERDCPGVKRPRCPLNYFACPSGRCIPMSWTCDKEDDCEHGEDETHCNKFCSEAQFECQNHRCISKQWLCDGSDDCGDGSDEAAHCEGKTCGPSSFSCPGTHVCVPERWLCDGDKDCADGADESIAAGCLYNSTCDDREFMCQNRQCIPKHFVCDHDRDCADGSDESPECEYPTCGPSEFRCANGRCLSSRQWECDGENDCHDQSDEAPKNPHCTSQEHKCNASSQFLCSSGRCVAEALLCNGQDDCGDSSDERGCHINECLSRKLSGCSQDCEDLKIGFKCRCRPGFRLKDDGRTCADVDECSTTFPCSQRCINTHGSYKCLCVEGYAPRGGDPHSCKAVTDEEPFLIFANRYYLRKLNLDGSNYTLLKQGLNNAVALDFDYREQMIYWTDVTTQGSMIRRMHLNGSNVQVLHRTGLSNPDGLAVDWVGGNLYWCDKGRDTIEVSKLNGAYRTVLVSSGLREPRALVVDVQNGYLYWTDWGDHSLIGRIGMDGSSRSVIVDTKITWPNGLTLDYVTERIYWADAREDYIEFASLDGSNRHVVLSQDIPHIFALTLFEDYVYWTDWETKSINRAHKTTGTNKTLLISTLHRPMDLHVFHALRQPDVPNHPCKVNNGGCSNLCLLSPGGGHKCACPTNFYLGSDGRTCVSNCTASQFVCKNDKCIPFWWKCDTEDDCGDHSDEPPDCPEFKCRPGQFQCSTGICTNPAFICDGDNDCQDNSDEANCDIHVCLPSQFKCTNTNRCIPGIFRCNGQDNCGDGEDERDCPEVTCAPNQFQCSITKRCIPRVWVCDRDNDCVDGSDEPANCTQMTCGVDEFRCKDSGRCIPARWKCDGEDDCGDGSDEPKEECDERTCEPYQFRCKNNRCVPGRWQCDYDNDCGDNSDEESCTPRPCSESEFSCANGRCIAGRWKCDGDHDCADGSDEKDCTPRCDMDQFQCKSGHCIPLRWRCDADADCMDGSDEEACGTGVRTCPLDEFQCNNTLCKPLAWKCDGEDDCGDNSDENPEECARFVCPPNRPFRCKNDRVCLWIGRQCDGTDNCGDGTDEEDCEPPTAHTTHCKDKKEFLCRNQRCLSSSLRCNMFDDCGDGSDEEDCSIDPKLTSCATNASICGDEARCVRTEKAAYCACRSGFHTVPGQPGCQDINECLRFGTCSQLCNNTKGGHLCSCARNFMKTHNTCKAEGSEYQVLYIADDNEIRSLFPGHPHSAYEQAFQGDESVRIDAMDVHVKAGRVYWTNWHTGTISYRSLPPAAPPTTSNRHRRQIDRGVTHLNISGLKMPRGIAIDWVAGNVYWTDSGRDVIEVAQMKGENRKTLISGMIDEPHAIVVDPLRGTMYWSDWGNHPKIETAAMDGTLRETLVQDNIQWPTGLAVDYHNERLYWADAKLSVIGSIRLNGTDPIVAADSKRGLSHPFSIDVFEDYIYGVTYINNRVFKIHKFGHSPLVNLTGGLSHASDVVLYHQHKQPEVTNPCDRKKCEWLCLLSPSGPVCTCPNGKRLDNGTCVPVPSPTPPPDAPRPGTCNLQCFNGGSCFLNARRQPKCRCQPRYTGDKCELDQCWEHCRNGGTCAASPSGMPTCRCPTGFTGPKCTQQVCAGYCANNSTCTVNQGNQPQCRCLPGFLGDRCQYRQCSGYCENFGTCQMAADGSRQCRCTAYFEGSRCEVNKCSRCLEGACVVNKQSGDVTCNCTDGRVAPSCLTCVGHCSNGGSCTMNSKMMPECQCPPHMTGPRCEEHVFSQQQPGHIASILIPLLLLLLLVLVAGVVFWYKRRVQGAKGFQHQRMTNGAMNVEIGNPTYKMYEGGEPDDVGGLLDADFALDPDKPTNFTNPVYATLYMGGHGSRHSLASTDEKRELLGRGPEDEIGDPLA

degradation of activated α2-macroglobulin, the preferred LRP ligand (LRP) | Substance | food intake (ob/ob mice) [g/day] | area under the TG curve (db/db mice; 250 ng leptin per animal, AUC 0-4 h) | decrease of the area under the postprandial TG curve (db/db mice; 500 ng leptin per animal (maximum effect)) [%] | amplitude of the triglyceride response (db/db mice; single bolus 50 μg mouse recombinant leptin i.v. at time of test meal) | Kd (Ob-R) [nM]
– | CSLPQTSGLQKPESLDGVLEAS (listed as Mus musculus) [mouse peptide, mouse leptin fragment residues 117-138, 22-mer] | 6.7 ± 0.3 | – | – | – | –
no detectable effect | leptin: plasma protein of 16 kDa produced by adipocytes; recombinant human or mouse leptin, species depends on the experiment | – | significant reduction | > 80 | decreased the amplitude of the triglyceride response | 0.7
